Our source for the Ki values is BindingDB's records for doi:10.1016/0006-3223(89)90217-5 (Stanford University, 1989).

Molecules are shown by their SMILES. Where only a bound is given, the exact number is not on record here.

The target in one experiment is D(1A) dopamine receptor (Homo sapiens, UniProt P21728).
Experiment [1] concerns the target T1, Muscarinic acetylcholine receptor M2 (Homo sapiens, UniProt P08172).
T1 sequence (P08172 whole entry): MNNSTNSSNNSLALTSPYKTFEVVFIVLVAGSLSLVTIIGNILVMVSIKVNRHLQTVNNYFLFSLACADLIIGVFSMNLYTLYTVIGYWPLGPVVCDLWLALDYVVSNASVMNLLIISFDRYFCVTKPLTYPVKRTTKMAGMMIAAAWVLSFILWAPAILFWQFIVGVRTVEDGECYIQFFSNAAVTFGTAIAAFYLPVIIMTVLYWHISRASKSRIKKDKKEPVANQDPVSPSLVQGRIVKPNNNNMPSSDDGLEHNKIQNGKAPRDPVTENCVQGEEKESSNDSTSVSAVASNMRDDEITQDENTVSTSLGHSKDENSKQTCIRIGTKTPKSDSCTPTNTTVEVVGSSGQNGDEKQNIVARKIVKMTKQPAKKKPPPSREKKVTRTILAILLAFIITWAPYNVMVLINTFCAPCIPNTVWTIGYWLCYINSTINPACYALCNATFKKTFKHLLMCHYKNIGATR

The target of experiment [2] is T2, Alpha-2A adrenergic receptor (Homo sapiens, UniProt P08913).
T2 sequence (P08913 whole entry): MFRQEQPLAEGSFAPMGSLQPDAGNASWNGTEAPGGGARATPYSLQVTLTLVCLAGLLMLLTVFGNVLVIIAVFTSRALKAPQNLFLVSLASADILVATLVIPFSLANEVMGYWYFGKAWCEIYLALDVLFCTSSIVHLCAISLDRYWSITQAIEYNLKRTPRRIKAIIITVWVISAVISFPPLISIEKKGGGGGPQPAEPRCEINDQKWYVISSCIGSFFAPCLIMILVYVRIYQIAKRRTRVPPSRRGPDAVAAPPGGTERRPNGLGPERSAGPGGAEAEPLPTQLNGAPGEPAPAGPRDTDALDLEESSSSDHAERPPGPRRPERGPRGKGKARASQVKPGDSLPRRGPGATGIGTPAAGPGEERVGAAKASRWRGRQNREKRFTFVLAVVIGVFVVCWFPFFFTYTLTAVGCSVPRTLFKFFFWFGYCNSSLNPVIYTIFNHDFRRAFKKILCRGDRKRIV

Experiment [3] concerns the target T3, Gamma-aminobutyric acid receptor subunit alpha-1 (Homo sapiens, UniProt P14867).
T3 sequence (P14867 whole entry): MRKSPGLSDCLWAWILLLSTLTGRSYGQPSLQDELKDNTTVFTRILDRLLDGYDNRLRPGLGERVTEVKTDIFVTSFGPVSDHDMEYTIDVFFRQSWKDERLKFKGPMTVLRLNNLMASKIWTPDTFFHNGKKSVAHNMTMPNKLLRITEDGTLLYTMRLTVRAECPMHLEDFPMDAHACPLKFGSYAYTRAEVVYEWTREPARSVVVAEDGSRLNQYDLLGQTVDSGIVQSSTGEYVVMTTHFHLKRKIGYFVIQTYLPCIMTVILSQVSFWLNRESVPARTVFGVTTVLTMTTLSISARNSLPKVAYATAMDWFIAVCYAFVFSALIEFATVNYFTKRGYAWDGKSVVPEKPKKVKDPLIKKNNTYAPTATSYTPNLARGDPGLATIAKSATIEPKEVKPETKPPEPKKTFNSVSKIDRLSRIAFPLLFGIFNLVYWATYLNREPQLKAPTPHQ

The target of experiment [4] is 5-hydroxytryptamine receptor 1D (Homo sapiens, UniProt P28221).
For experiment [5], the target named is T4, 5-hydroxytryptamine receptor 1A (Homo sapiens, UniProt P08908).
T4 sequence (P08908 whole entry): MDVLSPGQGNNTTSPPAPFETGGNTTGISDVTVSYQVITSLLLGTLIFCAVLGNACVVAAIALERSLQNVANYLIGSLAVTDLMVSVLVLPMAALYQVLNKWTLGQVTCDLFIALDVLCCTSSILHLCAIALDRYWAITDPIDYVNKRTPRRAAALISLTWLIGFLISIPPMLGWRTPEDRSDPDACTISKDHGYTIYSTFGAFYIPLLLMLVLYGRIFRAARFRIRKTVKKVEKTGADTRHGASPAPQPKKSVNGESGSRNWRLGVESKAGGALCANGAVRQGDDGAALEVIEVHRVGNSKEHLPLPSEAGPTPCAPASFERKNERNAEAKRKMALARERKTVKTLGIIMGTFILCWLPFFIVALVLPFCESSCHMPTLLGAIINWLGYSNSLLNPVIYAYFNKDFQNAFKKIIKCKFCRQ

The next experiment addresses D(2) dopamine receptor (Homo sapiens, UniProt P14416).
Experiment [6] concerns the target Beta-2 adrenergic receptor (Homo sapiens, UniProt P07550).
Experiment [7] deals with T5, Solute carrier family 22 member 1 (Homo sapiens, UniProt O15245).
T5 sequence (O15245 whole entry): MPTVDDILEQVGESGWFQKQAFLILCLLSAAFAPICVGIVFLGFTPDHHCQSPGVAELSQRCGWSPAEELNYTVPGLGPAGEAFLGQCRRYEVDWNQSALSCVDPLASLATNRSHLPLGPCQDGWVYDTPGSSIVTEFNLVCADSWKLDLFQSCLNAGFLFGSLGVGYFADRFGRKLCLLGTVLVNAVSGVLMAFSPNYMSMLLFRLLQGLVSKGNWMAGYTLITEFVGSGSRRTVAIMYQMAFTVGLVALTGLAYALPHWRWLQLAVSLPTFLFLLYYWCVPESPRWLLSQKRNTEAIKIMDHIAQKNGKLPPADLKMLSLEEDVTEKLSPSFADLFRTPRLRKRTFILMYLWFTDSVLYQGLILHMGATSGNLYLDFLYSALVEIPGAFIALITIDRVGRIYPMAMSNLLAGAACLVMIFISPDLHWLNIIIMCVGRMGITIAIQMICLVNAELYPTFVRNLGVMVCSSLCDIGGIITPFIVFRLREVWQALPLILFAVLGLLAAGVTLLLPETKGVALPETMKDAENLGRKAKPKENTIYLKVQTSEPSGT

Sequence of Beta-2 adrenergic receptor (P07550 whole entry): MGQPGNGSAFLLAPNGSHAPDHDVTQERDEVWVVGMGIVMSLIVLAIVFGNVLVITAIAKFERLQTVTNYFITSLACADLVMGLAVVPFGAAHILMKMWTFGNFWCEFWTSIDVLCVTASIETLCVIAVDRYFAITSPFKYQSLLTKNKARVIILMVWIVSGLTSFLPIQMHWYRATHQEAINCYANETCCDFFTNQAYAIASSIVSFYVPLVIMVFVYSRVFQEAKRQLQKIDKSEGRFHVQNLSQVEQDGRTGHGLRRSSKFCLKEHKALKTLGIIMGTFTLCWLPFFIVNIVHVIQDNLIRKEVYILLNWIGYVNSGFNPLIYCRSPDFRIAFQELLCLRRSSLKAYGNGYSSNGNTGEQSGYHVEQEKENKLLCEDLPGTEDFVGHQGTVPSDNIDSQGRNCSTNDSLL
Sequence of 5-hydroxytryptamine receptor 1D (P28221 whole entry): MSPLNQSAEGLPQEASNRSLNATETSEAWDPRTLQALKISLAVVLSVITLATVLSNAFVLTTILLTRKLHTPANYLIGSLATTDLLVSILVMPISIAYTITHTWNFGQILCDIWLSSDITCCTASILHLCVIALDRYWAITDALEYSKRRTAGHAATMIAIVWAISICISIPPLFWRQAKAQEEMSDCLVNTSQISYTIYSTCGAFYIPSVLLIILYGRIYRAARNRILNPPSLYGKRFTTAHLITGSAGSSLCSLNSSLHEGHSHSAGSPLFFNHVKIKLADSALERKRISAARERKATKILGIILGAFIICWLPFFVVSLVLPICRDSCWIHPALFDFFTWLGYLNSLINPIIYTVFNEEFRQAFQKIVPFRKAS
Sequence of D(2) dopamine receptor (P14416 whole entry): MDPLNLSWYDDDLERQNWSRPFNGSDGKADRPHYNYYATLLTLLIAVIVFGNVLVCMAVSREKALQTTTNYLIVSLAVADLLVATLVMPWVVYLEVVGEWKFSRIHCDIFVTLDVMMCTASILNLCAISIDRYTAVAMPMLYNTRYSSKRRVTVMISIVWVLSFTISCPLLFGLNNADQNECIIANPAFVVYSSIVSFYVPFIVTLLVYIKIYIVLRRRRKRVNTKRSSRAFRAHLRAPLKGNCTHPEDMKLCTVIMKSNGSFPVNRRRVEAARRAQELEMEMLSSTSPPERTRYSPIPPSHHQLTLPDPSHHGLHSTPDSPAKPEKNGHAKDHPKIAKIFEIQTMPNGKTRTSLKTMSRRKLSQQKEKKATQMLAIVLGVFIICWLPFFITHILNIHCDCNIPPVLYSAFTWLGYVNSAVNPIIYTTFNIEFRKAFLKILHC
Sequence of D(1A) dopamine receptor (P21728 whole entry): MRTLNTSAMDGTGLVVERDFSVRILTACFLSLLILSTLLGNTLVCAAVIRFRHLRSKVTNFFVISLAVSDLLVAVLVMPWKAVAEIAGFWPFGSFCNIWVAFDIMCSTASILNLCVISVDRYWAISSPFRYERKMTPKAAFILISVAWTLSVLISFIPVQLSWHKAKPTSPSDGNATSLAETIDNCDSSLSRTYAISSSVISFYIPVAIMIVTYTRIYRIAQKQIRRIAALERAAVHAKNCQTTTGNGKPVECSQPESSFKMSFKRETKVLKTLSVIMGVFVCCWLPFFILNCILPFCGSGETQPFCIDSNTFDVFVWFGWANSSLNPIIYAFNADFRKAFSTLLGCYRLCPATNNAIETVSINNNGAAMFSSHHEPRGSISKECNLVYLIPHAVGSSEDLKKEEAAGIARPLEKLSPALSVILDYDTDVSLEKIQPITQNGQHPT

As for `Clc1cccc(N2CCNCC2)c1` [mCPP], the Ki (in general, a dissociation constant, usually derived from enzyme kinetics or from competition with a known ligand) at D(1A) dopamine receptor is 7 µM; in experiment [1], > 10 µM; in [2], 570 nM; in [3], > 10 µM; in experiment [4], 1300 nM; in [5], 400 nM. Also, the inhibition constant (Ki) at D(2) dopamine receptor is > 10 µM; in experiment [6], 2500 nM; in experiment [7] it was 2900 nM.
